Results published in patent US7816358B2, “Pharmaceutical formulations comprising N,N′-disubstituted piperazine compounds” (Gruenenthal GmbH, priority 2001, dated 2010).

Test system: gabapentin binding site
Assay: Gabapentin binding assay: displacement of [3H]-gabapentin from its binding site
Conditions: compound 10 μM in the test batch; [3H]-gabapentin 10 nM; homogenate 0.6 mg/ml protein; 40 minutes at room temperature
Protocol: In the binding assay, the binding and affinities of the compounds according to the invention to the binding site—which is also hitherto still unknown in science—of gabapentin is investigated. The affinity of the compounds was measured via the displacement of gabapentin from its binding site.
The procedure for the measurement was as follows: Homogenate aliquots were thawed and diluted 20-fold with buffer 1, resuspended and then centrifuged at 110,000×g for 20 minutes. The pellet was resuspended with buffer 2 (10 mM HEPES, 0.05% NaN3, 1 tablet of Complete (Roche Diagnostics) per 100 ml, 0.004% Structol, pH 7.4) and adjusted to a protein concentration of 0.6 mg/ml. 225 μl of homogenate, 20 μl of [^3H]-gabapentin (76 Ci/mmol) in buffer 2, corresponding to a concentration of 10 nM in the test batch, and 5 μl of a compound according to the invention (dissolved in 25% DMSO in water) with a concentration of 10 μM in the test batch were incubated on a shaking machine for 40 minutes at room temperature in 96-well microtiter plates (polypropylene, Costar) and the incubated mixture was then filtered with suction on 96-well Unifilter plates with GF/B filters (Whatman) using a harvester (Robotic Harvester 9600, Brandel). The filter plates were preswollen for 40 minutes in buffer 3 (50 mM Tris, 0.5% PEI, pH 7.4) before the filtering step. The filter plates were washed three times with wash buffer (0.1 M NaCl with 0.05 NaN3) after the filtering step in order to remove non-bound radioligand, and then dried in a drying cabinet at 55° C. After a cooling phase of 15 minutes, 35 μl of scintillator (Ultima Gold MV, Packard) were added per well and the radioactivity on the filters was then determined in a β-counter (Trilux Microbeta, Wallac).

Compound | Gabapentin [%] inhibition [%]
CN1CCN(CC2CCCCCCC2(O)Cc2ccc(F)cc2)CC1 (stereo not drawn) [1-(4-Fluoro-benzyl)-2-(4-methyl-piperazin-1-ylmethyl)-cyclooctanol] | 39
CN1CCN(CC2CCCCCCCCCCC2(O)Cc2cccc(F)c2)CC1 (stereo not drawn) [1-(3-Fluoro-benzyl)-2-(4-methyl-piperazin-1-ylmeethyl)-cyclododecanol] | 45
CN1CCN(CC2CCCCCCCCCCC2(O)Cc2ccccc2)CC1 (stereo not drawn) [1-Benzyl-2-(4-methyl-piperazin-1-ylmethyl)-cyclododecanol] | 56
CN1CCN(CC2CCCCCCC2(O)Cc2ccc(Cl)cc2Cl)CC1 (stereo not drawn) [1-(2,4-Dichloro-benzyl)-2-(4-methyl-piperazin-1-ylmethyl)-cyclooctanol] | 48
CN1CCN(CC2CCCCCC2(O)Cc2ccc(Cl)cc2Cl)CC1 (stereo not drawn) [1-(2,4-Dichloro-benzyl)-2-(4-methyl-piperazin-1-ylmethyl)-cycloheptanol] | 48
C=CC1(O)CCCCCCCCCCC1CN1CCN(C)CC1 (stereo not drawn) [2-(4-Methyl-piperazin-1-ylmethyl)-1-vinyl-cyclododecanol] | 49
CN1CCN(CC2CCCCCC2(O)Cc2cccc(F)c2)CC1 (stereo not drawn) [1-(3-Fluoro-benzyl)-2-(4-methyl-piperazin-1-ylmethyl)-cycloheptanol] | 44
CN1CCN(CC2CCCCCC2(O)Cc2c(F)cccc2Cl)CC1 (stereo not drawn) [1-(2-Chloro-6-fluoro-benzyl)-2-(4-methyl-piperzazin-1-ylmethyl)-cycloheptanol] | 82
CN1CCN(CC2CCCCCC2(O)Cc2ccccc2Cl)CC1 (stereo not drawn) [1-(2-Chloro-benzyl)-2-(4-methyl-piperazin-1-ylmethyl)-cycloheptanol] | 74
CN1CCN(CC2CCCCCCC2(O)Cc2cccc(F)c2)CC1 (stereo not drawn) [1-(3-Fluoro-benzyl)-2-(4-methyl-piperazin-1-ylmethyl)-cyclooctanol] | 42
CN1CCN(CC2CCCCCCC2(O)Cc2ccccc2Cl)CC1 (stereo not drawn) [1-(2-Chloro-benzyl)-2-(4-methyl-piperazin-1-ylmethyl)-cyclooctanol] | 61
CN1CCN(CC2CCCCCCC2(O)Cc2c(F)cccc2Cl)CC1 (stereo not drawn) [1-(2-Chloro-6-fluoro-benzyl)-2-(4-methyl-piperazin-1-ylmethyl)-cyclooctanol] | 60
